Test system: B16 melanoma
Test: Tumor growth and survival of mice which have a B16 melanoma
Assay type: in vivo, mouse
Conditions: for inhibition of tumor growth: mice with subcutaneous B16 melanoma, dose of 300 mg/kg
Experimental: A melanoma is induced in a mouse by subcutaneous injection of tumor cells (B16 cells).
The tumor develops within 10 days in the subcutaneous position (ventral face of the thigh). The size of the tumor is measured with a caliper rule and its volume is estimated according to the formula V=L×w×w, in which L represents the length and w represents the width. Various compounds of the invention were administered to mice having received syngenic melanoma cells (B16) at a dose of 300 mg/kg.

Substance | mortality in treated mouse group (after 18 days of treatment, 300 mg/kg, nontreated mouse group 40% mortality) | inhibition of tumor growth [%]
6-(METHYL 6-DEOXY-α-D-MANNOPYRANOSIDE) BORONIC ACID [compound 7f] | no mortality | 65
METHYL 6-O-HYDROGENOPHOSPHONATE-α-D-MANNO-PYRANOSIDE [compound 4e] | – | 40

Source: US20130164387A9, “NOVEL MANNOPYRANOSIDE DERIVATIVES WITH ANTICANCER ACTIVITY” (Centre National De La Recherche Scientifique, priority 2009, published 2013)
